Columns and labels:
K562 = experiment: Antitumor activity against human K562 cells; type: functional, cell-based
MCF7 [1] = experiment: Cytotoxicity against human MCF7 cells assessed as survival rate at 10 uM measured after 72 hrs by MTT assay relative to control; type: functional; settings: read-out: Survival
HCT-116 [2] = experiment: Cytotoxicity against human HCT-116 cells assessed as survival rate at 10 uM measured after 72 hrs by MTT assay relative to control; type: functional; settings: read-out: Survival
U-87 MG [3] = experiment: Cytotoxicity against human U-87 MG cells assessed as survival rate at 10 uM measured after 72 hrs by MTT assay relative to control; type: functional, U-87MG ATCC; settings: read-out: Survival
A549 = experiment: Antitumor activity against human A549 cells; type: functional, cell-based
HT-29 = experiment: Antitumor activity against human HT-29 cells; type: functional, cell-based
P388 = experiment: Antitumor activity against mouse P388 cells; type: functional, cell-based
MGC-803 [4] = experiment: Cytotoxicity against human MGC-803 cells assessed as inhibition of cell growth incubated for 72 hrs by MTT assay; type: functional, cell-based; settings: MGC-803, 72 h
HCT-116 [5] = experiment: Cytotoxicity against human HCT-116 cells assessed as inhibition of cell growth incubated for 72 hrs by MTT assay; type: functional, cell-based; settings: HCT-116, 72 h
HeLa [6] = experiment: Cytotoxicity against human HeLa cells assessed as inhibition of cell growth at 10 uM measured after 72 hrs by MTT assay relative to control; type: functional
U-87 MG [7] = experiment: Cytotoxicity against human U-87 MG cells assessed as inhibition of cell growth incubated for 72 hrs by MTT assay; type: functional, cell-based, U-87MG ATCC
HCT-116 [8] = experiment: Cytotoxicity against human HCT-116 cells assessed as inhibition of cell growth at 10 uM measured after 72 hrs by MTT assay relative to control; type: functional
MCF7 [9] = experiment: Cytotoxicity against human MCF7 cells assessed as inhibition of cell growth incubated for 72 hrs by MTT assay; type: functional, cell-based; settings: MCF7, 72 h
MKN-45 [10] = experiment: Cytotoxicity against human MKN-45 cells assessed as inhibition of cell growth at 10 uM measured after 72 hrs by MTT assay relative to control; type: functional
U-87 MG [11] = experiment: Cytotoxicity against human U-87 MG cells assessed as inhibition of cell growth at 10 uM measured after 72 hrs by MTT assay relative to control; type: functional, U-87MG ATCC
MKN-45 [12] = experiment: Cytotoxicity against human MKN-45 cells assessed as inhibition of cell growth incubated for 72 hrs by MTT assay; type: functional, cell-based; settings: MKN-45, 72 h
MGC-803 [13] = experiment: Cytotoxicity against human MGC-803 cells assessed as inhibition of cell growth at 10 uM measured after 72 hrs by MTT assay relative to control; type: functional
[14] = Cytotoxicity against HHL-5 cells assessed as inhibition of cell growth incubated for 72 hrs by MTT assay; type: toxicity, cell-based; settings: human
MCF7 [15] = experiment: Cytotoxicity against human MCF7 cells assessed as inhibition of cell growth at 10 uM measured after 72 hrs by MTT assay relative to control; type: functional
HeLa [16] = experiment: Cytotoxicity against human HeLa cells assessed as inhibition of cell growth incubated for 72 hrs by MTT assay; type: functional, cell-based

## CC1(C)CCc2cc(/C=C3\OC(=O)C=C3c3ccc(O)cc3)ccc2O1
K562
  IC50: 10100 nM

## O=C1C=C(c2ccccc2)/C(=C/c2ccc(O)cc2)O1
MCF7 [1]
  viability at 10 µM: 87.1%
HCT-116 [2]
  viability at 10 µM: 87.7%
U-87 MG [3]
  viability at 10 µM: 92.4%

## O=C1O/C(=C\c2ccc(O)c(Br)c2)C(c2ccc(O)cc2)=C1Cl
A549
  IC50: 3100 nM
HT-29
  IC50: 3100 nM
P388
  IC50: 3100 nM

## COc1ccc(C2=CC(=O)O/C2=C\c2ccc(O)c(OC)c2)cc1
MCF7 [1]
  viability at 10 µM: 25.2%
MGC-803 [4]
  IC50: 5400 nM
HCT-116 [5]
  IC50: 400 nM
HeLa [6]
  inhibition at 10 µM: > 50%
U-87 MG [7]
  IC50: 4500 nM
HCT-116 [8]
  inhibition at 10 µM: > 50%
HCT-116 [2]
  viability at 10 µM: 24.1%
MCF7 [9]
  IC50: 100 nM
MKN-45 [10]
  inhibition at 10 µM: > 50%
U-87 MG [11]
  inhibition at 10 µM: > 50%
MKN-45 [12]
  IC50: 300 nM
MGC-803 [13]
  inhibition at 10 µM: > 50%
U-87 MG [3]
  viability at 10 µM: 37.8%
[14]
  IC50 at 72 h: 1900 nM
MCF7 [15]
  inhibition at 10 µM: > 50%
HeLa [16]
  IC50: 600 nM

## COc1ccc(C2=CC(=O)O/C2=C\c2ccc(C(C)(C)C)cc2)cc1
MCF7 [1]
  viability at 10 µM: 60.2%
HCT-116 [2]
  viability at 10 µM: 98.9%
U-87 MG [3]
  viability at 10 µM: 109%

## COc1cc(/C=C2\OC(=O)C=C2c2ccccc2)ccc1O
MCF7 [1]
  viability at 10 µM: 102%
HCT-116 [2]
  viability at 10 µM: 137%
U-87 MG [3]
  viability at 10 µM: 99.8%

## COc1ccc(C2=CC(=O)O/C2=C\c2ccc(NC(C)=O)cc2)cc1
MCF7 [1]
  viability at 10 µM: 30.4%
MGC-803 [4]
  IC50: 3000 nM
HCT-116 [5]
  IC50: 2200 nM
HeLa [6]
  inhibition at 10 µM: > 50%
U-87 MG [7]
  IC50: 2500 nM
HCT-116 [8]
  inhibition at 10 µM: > 50%
HCT-116 [2]
  viability at 10 µM: 32.5%
MCF7 [9]
  IC50: 6100 nM
MKN-45 [10]
  inhibition at 10 µM: > 50%
U-87 MG [11]
  inhibition at 10 µM: > 50%
MKN-45 [12]
  IC50: 1000 nM
MGC-803 [13]
  inhibition at 10 µM: > 50%
U-87 MG [3]
  viability at 10 µM: 39.2%
[14]
  IC50 at 72 h: 5500 nM
MCF7 [15]
  inhibition at 10 µM: > 50%
HeLa [16]
  IC50: 700 nM

## COc1ccc(C2=CC(=O)O/C2=C\c2ccc3ccccc3c2)cc1
MCF7 [1]
  viability at 10 µM: 83.8%
HCT-116 [2]
  viability at 10 µM: 98.3%
U-87 MG [3]
  viability at 10 µM: 106%

## O=C1C=C(c2ccccc2)/C(=C/c2ccc(C(=O)O)cc2)O1
MCF7 [1]
  viability at 10 µM: 87.3%
HCT-116 [2]
  viability at 10 µM: 105%
U-87 MG [3]
  viability at 10 µM: 96.5%

## COc1ccc(C2=CC(=O)O/C2=C\c2ccc(C(=O)O)c(O)c2)cc1
MCF7 [1]
  viability at 10 µM: 40.7%
HCT-116 [2]
  viability at 10 µM: 62.8%
U-87 MG [3]
  viability at 10 µM: 106%

## Cc1ccc(/C=C2\OC(=O)C=C2c2ccccc2)cc1
MCF7 [1]
  viability at 10 µM: 87.4%
HCT-116 [2]
  viability at 10 µM: 104%
U-87 MG [3]
  viability at 10 µM: 101%

## COc1cccc2c1C(=O)c1c(O)c3c(c(O)c1C2=O)C[C@@](O)(C(=O)CO)C[C@@H]3O[C@H]1C[C@H](N)[C@H](O)[C@H](C)O1 [DOXORUBICIN]
MCF7 [1]
  viability at 10 µM: 5.8%
MGC-803 [4]
  IC50: 300 nM
HCT-116 [5]
  IC50: 200 nM
U-87 MG [7]
  IC50: 300 nM
HCT-116 [2]
  viability at 10 µM: 12.2%
MKN-45 [12]
  IC50: 200 nM
U-87 MG [3]
  viability at 10 µM: 20.3%
[14]
  IC50 at 72 h: 7200 nM
HeLa [16]
  IC50: 200 nM

## CC(C)=CCc1cc(/C=C2\OC(=O)C=C2c2ccc(O)cc2)ccc1O
K562
  IC50: 12800 nM

Reference: ChEMBL document CHEMBL6078667, “Synthesis, Biological Evaluation, and Mechanistic Insights of Rubrolide Analogues as Antitumor Agents” (J Nat Prod, 2024)
